Laboratory results as given in EP4603105A1, “PHARMACEUTICAL COMPOSITION CONTAINING CYCLIC COMPOUND HAVING SELECTIVE KRAS INHIBITORY EFFECT AGAINST HRAS AND NRAS” (CHUGAI SEIYAKU KABUSHIKI KAISHA, priority 2022, dated 2024).
Where two headings read alike, the source gives them in different places.

Legend:
[1] = target: GDP-bound KRAS wild-type protein (Homo sapiens, UniProt P01116); assay: Binding to KRAS by surface plasmon resonance (SPR), dissociation constant KD
Method in brief: (§1)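 Single-cycle kinetics on GDP-loaded biotin-Avi RAS captured to ~100–300 RU; 75 s ascending injections, 100 µL/min, 30°C. HBS pH 7.4 + 10 mM MgCl2/10 µM GDP/4% DMSO. 1:1 fit, KD.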

[2] = tested on: human lung cancer strain NCI-H441; assay: NCI-H441 cell proliferation inhibitory activity (CellTiter-Glo, 4 days); type: cell-based; details: read-out: NCl-H441 IC50
Method in brief: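 Proliferation was scored by […] measured after the reagent was added to cultures kept at 37°C in 5% carbon dioxide.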

[3] = target: GDP-bound NRAS wild-type protein (Homo sapiens, UniProt P01111); assay: Binding to NRAS by surface plasmon resonance (SPR), KD and KD ratio to KRAS
GDP-bound NRAS wild-type protein, sequence (P01111 whole entry): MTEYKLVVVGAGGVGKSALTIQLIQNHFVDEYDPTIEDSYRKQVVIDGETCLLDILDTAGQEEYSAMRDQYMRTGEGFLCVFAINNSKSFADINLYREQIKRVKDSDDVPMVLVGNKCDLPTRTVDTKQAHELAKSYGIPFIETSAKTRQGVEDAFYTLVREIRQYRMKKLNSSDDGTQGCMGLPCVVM
Method in brief: as §1

HRAS wild-type protein = HRAS wild-type protein (Homo sapiens, UniProt P01112); assay: Binding to HRAS by surface plasmon resonance (SPR), KD and KD ratio to KRAS
HRAS wild-type protein, sequence (P01112 whole entry): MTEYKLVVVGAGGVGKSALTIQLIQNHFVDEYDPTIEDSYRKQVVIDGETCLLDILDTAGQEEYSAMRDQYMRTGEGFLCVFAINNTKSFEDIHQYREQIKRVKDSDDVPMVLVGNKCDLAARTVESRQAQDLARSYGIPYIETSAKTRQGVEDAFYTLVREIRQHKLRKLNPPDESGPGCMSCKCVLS
Method in brief: as §1

[4] = ratio of KD for GDP-bound NRAS wild-type protein to KD for KRAS
[5] = ratio of KD for HRAS wild-type protein to KD for KRAS

GDP-bound KRAS wild-type protein, sequence (P01116 1-188 isoform P01116-2): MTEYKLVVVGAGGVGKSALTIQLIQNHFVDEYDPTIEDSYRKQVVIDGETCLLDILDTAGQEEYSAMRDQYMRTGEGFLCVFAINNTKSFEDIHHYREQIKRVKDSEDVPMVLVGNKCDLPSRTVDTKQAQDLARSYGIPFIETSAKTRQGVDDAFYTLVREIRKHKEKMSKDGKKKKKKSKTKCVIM

Row | SMILES | Kd ([1]; Single Cycle Kinetics, 1:1 binding model) | IC50 ([2]; 50% proliferation inhibitory concentration, four days) | NRAS /KRAS ([3]; ratio of KD with respect to GDP-bound NRAS wild-type protein to KD with respect to KRAS) | HRAS /KRAS (HRAS wild-type protein; ratio of KD with respect to HRAS wild-type protein to KD with respect to KRAS) | Kd ([1]; 1:1 binding model) | IC50 ([2]; NCI-H441 cells, 4 days) | NRAS /KRAS [3, 4] | HRAS /KRAS (HRAS wild-type protein; [5]) | Kd ([1]; Single Cycle Kinetics)
1 | CC[C@H](C)[C@@H]1NC(=O)[C@H](CC)N(C)C(=O)C[C@@H](C(=O)N(C)C)N(C)C(=O)[C@H](C2CCCC2)N(C)C(=O)C2(CCC2)NC(=O)[C@@H]2CCCN2C(=O)[C@H](CCc2cc(F)c(C(F)(F)F)c(F)c2)NC(=O)CN(C)C(=O)[C@H](CC2CCCCC2)N2CC/C=C\C[C@@H](C2=O)N(C)C(=O)CN(C)C1=O [PP1475] | 0.55 nM | 48.9 nM | A (a compound having 10 or more and less than 20 is denoted as A) | A (a compound having 10 or more and less than 20 is denoted as A) |  |  |  |  | 
2 | CCC(CC)[C@H]1C(=O)N(C)[C@H](C(=O)N(C)C)CC(=O)N(C)[C@@H](COC)C(=O)N[C@@H]([C@@H](C)CC)C(=O)N2CCC[C@H]2C(=O)N(C)[C@H]2C/C=C\CCN(C2=O)[C@@H](Cc2ccc(C(F)(F)F)cc2)C(=O)N(C)CC(=O)N[C@@H](CCc2ccc(Cl)c(Cl)c2)C(=O)N2C[C@H](OC(C)C)C[C@H]2C(=O)NC2(CC(C)(C)C2)C(=O)N1C [PP2639] |  |  |  |  | 1.1 nM | 81.6 nM | AA (a compound having 20 or more is denoted as AA) | A (a compound having 10 or more and less than 20 is denoted as A) | 
3 | CCOC[C@H]1C(=O)N[C@@H]([C@@H](C)CC)C(=O)N(C)CC(=O)N(C)[C@H]2C/C=C\CCN(C2=O)[C@@H](Cc2ccc(C(F)(F)F)cc2)C(=O)N(C)CC(=O)N[C@@H](CCc2ccc(C(F)(F)F)c(OC)c2)C(=O)N2C[C@@H](C)C[C@H]2C(=O)N(C)C2(CCC2)C(=O)N(C)[C@@H](C2CCCC2)C(=O)N(C)[C@H](C(=O)N(C)C)CC(=O)N1C [PP2359] |  |  |  |  | 0.02 nM | 7.6 nM | A (a compound having 10 or more and less than 20 is denoted as A) | B (a compound having 3 or more and less than 10 is denoted as B) | 
4 | CCO[C@@H]1C[C@H]2C(=O)NC3(CC(C)(C)C3)C(=O)N(C)[C@@H](C3CCCC3)C(=O)N(C)[C@H](C(=O)N(C)CC)CC(=O)N(C)[C@@H]([C@H](C)OC)C(=O)N[C@@H]([C@@H](C)CC)C(=O)N(C3CC3)CC(=O)N(C)[C@H]3C/C=C\CCN(C3=O)[C@@H](Cc3ccc(C(F)(F)F)cc3)C(=O)N(C)CC(=O)N[C@@H](CCc3cc(F)c(C(F)(F)F)c(F)c3)C(=O)N2C1 [PP3220] |  |  |  |  |  | 25.7 nM | A (a compound having 10 or more and less than 20 is denoted as A) | A (a compound having 10 or more and less than 20 is denoted as A) | 0.52 nM
5 | C#CC[C@H]1C(=O)N[C@@H]([C@@H](C)CC)C(=O)N2CCC[C@H]2C(=O)N(C)[C@H]2C/C=C\CCN(C2=O)[C@@H](Cc2ccc(C(F)(F)F)cc2)C(=O)N(C)CC(=O)N[C@@H](CCc2cc(F)c(C(F)(F)F)c(F)c2)C(=O)N2C[C@H](OCC)C[C@H]2C(=O)N(C)C2(CCC2)C(=O)N(C)[C@@H](C2CCCC2)C(=O)N(C)[C@H](C(=O)N(C)C)CC(=O)N1C [PP3253] |  |  |  |  |  | 2.9 nM | A (a compound having 10 or more and less than 20 is denoted as A) | B (a compound having 3 or more and less than 10 is denoted as B) | 0.088 nM
6 | CCC[C@H]1C(=O)N[C@@H]([C@@H](C)CC)C(=O)N(C)CC(=O)N(C)[C@H]2C/C=C\CCN(C2=O)[C@@H](Cc2ccc(C)cc2)C(=O)N(C)CC(=O)N[C@@H](CCc2ccc(C(F)(F)F)c(Cl)c2)C(=O)N2CC3(CC3)C[C@H]2C(=O)NC2(CCC2)C(=O)N(C)[C@@H](C(CC)CC)C(=O)N(C)[C@H](C(=O)N(C)C)CC(=O)N1C [PP3424] |  |  |  |  |  | 27.2 nM | AA (a compound having 20 or more is denoted as AA) | A (a compound having 10 or more and less than 20 is denoted as A) | 0.48 nM
7 | CCC[C@H]1C(=O)N[C@@H]([C@@H](C)CC)C(=O)N2CCCC[C@H]2C(=O)N(C)[C@H]2C/C=C\CCN(C2=O)[C@@H](Cc2ccc(C)cc2)C(=O)N(C)CC(=O)N[C@@H](CCc2ccc(C(F)(F)F)c(OC)c2)C(=O)N2C[C@H](OCC)C[C@H]2C(=O)N(C)C2(CCC2)C(=O)N(C)[C@@H](C2CCCC2)C(=O)N(C)[C@H](C(=O)N(C)C)CC(=O)N1C [PP3273] |  |  |  |  |  | 34 nM | A (a compound having 10 or more and less than 20 is denoted as A) | B (a compound having 3 or more and less than 10 is denoted as B) | 0.5 nM
